In test [1] the target is T1, Mitogen-activated protein kinase kinase kinase 7 (Homo sapiens) (UniProt O43318).
T1 sequence (whole entry): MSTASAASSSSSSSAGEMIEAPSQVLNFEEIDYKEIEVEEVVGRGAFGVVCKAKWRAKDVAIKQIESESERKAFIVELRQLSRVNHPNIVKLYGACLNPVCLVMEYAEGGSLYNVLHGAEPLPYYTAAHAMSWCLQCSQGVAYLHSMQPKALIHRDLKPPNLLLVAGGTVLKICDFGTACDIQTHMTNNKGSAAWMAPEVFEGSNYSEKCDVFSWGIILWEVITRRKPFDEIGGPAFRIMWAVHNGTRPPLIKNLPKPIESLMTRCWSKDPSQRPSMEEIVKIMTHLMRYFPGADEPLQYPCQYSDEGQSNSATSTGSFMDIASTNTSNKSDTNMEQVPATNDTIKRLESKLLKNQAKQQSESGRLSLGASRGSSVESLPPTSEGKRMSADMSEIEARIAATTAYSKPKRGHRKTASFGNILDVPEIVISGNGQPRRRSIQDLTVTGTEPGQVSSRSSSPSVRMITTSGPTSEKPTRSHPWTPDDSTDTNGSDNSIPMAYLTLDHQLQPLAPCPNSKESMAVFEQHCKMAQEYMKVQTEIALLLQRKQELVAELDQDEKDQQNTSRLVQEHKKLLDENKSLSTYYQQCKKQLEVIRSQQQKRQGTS
Briefly: Enzymatic radiometric [Km ATP] KinaseProfiler LeadHunter assay, kinase: TAK1, catalogue number: 14-600KP The assay has been performed by Eurofins Discovery. Conditions: ATP concentration 45.0 uM, Test compound concentration 10.0 uM.

Test [2] has as its target T2, Tyrosine-protein kinase receptor TYRO3 (Homo sapiens) (UniProt Q06418).
T2 sequence (whole entry): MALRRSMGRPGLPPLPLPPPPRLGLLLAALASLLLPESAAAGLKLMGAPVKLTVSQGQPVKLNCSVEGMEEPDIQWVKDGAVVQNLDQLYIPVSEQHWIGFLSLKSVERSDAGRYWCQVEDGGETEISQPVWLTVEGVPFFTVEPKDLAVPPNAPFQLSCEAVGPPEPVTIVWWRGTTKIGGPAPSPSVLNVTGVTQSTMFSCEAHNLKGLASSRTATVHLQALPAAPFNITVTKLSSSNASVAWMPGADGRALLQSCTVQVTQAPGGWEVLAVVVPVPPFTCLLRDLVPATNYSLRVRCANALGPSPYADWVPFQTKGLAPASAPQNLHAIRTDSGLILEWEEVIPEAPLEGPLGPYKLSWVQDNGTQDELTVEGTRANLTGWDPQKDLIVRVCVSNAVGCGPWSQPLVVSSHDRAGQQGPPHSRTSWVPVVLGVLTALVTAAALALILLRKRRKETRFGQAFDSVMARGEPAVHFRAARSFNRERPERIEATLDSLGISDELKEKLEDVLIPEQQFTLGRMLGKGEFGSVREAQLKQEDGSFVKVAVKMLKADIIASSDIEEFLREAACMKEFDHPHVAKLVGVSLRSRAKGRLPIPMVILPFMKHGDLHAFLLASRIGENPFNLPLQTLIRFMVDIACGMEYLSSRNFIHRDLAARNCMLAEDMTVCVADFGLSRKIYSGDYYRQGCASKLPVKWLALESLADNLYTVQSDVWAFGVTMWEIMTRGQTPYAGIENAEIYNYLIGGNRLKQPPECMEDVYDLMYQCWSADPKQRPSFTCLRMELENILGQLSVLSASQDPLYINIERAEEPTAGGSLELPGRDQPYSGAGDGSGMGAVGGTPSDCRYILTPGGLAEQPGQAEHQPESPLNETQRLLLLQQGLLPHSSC
Briefly: Enzymatic radiometric [Km ATP] KinaseProfiler LeadHunter assay, kinase: Rse, catalogue number: 14-535KP The assay has been performed by Eurofins Discovery. Conditions: ATP concentration 45.0 uM, Test compound concentration 10.0 uM.

Test [3] deals with SRSF protein kinase 1 (Homo sapiens) (UniProt Q96SB4). Nature of the test: Enzymatic radiometric [Km ATP] KinaseProfiler LeadHunter assay, kinase: SRPK1, catalogue number: 14-564KP The assay has been performed by Eurofins Discovery. Conditions: ATP concentration 10.0 uM, Test compound concentration 10.0 uM.
The target of test [4] is T3, Serine/threonine-protein kinase 4 (Homo sapiens) (UniProt Q13043).
T3 sequence (whole entry): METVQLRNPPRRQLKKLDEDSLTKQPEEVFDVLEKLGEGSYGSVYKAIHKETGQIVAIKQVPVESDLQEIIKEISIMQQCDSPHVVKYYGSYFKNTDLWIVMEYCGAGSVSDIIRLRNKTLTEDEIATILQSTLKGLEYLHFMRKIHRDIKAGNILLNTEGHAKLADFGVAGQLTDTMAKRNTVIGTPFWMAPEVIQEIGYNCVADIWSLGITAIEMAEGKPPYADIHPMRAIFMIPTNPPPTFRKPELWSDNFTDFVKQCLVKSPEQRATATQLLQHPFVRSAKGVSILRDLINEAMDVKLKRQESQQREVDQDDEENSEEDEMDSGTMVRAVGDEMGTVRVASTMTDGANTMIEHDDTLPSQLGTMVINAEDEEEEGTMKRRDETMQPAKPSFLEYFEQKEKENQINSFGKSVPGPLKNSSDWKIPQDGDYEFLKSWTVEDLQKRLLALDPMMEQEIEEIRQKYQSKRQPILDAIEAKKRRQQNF
Briefly: Enzymatic radiometric [Km ATP] KinaseProfiler LeadHunter assay, kinase: MST1, catalogue number: 14-624KP The assay has been performed by Eurofins Discovery. Conditions: ATP concentration 90.0 uM, Test compound concentration 10.0 uM.

Several values for one entry are separate records, joined by “and”; a condition that tells them apart may be missing. Identical values can stand only once.

The record followed here is ChEMBL document CHEMBL5442741, “ASAP - In vitro kinase profile” (2024).

Sequence of SRSF protein kinase 1 (Homo sapiens) (Q96SB4 whole entry): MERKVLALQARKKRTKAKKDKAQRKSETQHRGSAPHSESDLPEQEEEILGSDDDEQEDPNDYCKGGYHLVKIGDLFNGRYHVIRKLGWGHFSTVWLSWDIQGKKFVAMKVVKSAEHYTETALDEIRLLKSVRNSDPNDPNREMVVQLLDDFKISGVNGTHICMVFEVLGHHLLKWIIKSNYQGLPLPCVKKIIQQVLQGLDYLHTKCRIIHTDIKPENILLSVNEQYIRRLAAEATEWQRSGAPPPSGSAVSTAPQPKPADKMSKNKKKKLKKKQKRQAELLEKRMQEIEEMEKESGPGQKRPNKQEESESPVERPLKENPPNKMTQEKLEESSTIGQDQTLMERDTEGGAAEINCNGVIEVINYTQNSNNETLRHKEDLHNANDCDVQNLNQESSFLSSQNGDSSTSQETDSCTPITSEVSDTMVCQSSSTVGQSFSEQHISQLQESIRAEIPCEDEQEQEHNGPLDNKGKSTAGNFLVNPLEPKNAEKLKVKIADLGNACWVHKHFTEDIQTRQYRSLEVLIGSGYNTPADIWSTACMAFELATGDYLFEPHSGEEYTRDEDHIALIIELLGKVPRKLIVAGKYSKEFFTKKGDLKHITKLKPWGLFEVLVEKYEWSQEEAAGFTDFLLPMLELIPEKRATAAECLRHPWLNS

For the molecule `CC(C)[C@H](Nc1ncnc2[nH]ccc12)c1ccc2c(c1)S(=O)(=O)CCC2`, the Activity is 90% in test [1], 86% in test [2], 100% in test [3] and 126% in test [4].

For the molecule `Cc1nn(C)cc1-c1cc2c(N[C@H](c3ccc4c(c3)S(=O)(=O)CCC4)C(C)C)ncnc2[nH]1`, the Activity in test [1] worked out at 100%; in test [2], 96%; in test [3] it was 104%; in test [4] it was 115%.

In the case of `CC(C)[C@H](Nc1ncnc2[nH]c(-c3cnn(C)c3C#N)cc12)c1ccc2c(n1)OCCO2`, the Activity is 94% in test [1], 105% in test [2], 111% in test [3] and 120% in test [4].

With `CC(C)[C@@H](Nc1ncnc2[nH]ccc12)c1ccc2c(c1)S(=O)(=O)CCC2`, the Activity in test [1] came out at 83%; in test [2] it was 115%; in test [3], 105%; in test [4], 88%.

In the case of `CC(C)[C@@H](Nc1ncnc2[nH]c(-c3cnn(C)c3C#N)cc12)c1ccc2c(n1)OCCO2`, the Activity is 103% and 100% in test [1]; 116% and 107% in test [2]; 92% and 104% in test [3]; 103% and 121% in test [4].

With `C[C@H](C(=O)O)[C@@H](NC(=O)c1ncnc2[nH]ccc12)c1ccc(Br)cc1`, the Activity in test [1] is 95%; in test [2] it was 87%; in test [3], 97%; in test [4], 121%.

Turning to `CNC(=O)Cn1cc(-c2cc3c(N[C@@H](c4ccc5c(c4)S(=O)(=O)CCC5)C(C)C)ncnc3[nH]2)cn1`, the Activity stood at 99% in test [1], 89% in test [2], 94% in test [3] and 112% in test [4].

Turning to `COc1ccc([C@@H](Cc2nnn[nH]2)NC(=O)c2ncnc3[nH]ccc23)cc1`, the Activity in test [1] amounted to 88%; in test [2] it was 88%; in test [3], 102%; in test [4] it was 98%.

For the molecule `CC(C)[C@@H](Nc1ncnc2[nH]c(C(=O)N[C@@H]3CCN(C)C3)cc12)c1ccc2c(c1)S(=O)(=O)CCC2`, the Activity came to 100% in test [1], 107% in test [2], 108% in test [3] and 122% in test [4].

On to `Cn1ncc(-c2cc3c(N[C@@H](c4ccc5c(n4)OCCO5)C(C)(C)C)ncnc3[nH]2)c1C#N`, for which the Activity is 95% in test [1], 110% in test [2], 117% in test [3] and 115% in test [4].

As to `COc1ccc([C@H](Cc2nnn[nH]2)NC(=O)c2ncnc3[nH]ccc23)cc1`, the Activity in test [1] is 99%; in test [2], 100%; in test [3] it was 103%; in test [4], 127%.

As for `CNCc1cc(-c2cc3c(N[C@@H](c4ccc5c(c4)S(=O)(=O)CCC5)C(C)C)ncnc3[nH]2)co1`, the Activity in test [1] turned out to be 90%; in test [2], 81%; in test [3], 101%; in test [4] it was 108%.
